One series relates to interleukin-1 (IL-1). Nature of the series: IL-1 producing activity (peripheral blood monocyte fraction; supernatant measured on A375 Met-Mix cells). The class given is cell-based, human. Conditions: 50 µg of compound, 1 × 10⁶ cells/well, 48 hours at 37°C; reciprocal of supernatant dilution showing 50% inhibition. As to the method: The producing activity of interleukin-1 (IL-1) was determined in the following experiment [see Biochem. Biopys. Res. Comm., Vol. 154, 1189 - 1196, 1988].
From 50 mℓ of human peripheral blood, buffy coat was isolated, and peripheral blood monocyte fraction was obtained by using Lymphoprep (Wako Pharmaceutical). After hemolyzing mixed erythrocytes, cells were rinsed twice in Dulbecco's modified Eagle medium (MEM), and suspended in the RPMI 1640 medium containing 5% fetal cow serum (FCS) and 2.5 × 10⁻⁵ M 2-mercaptoethanol. The cells (1 × 10⁶ cells/well) were incubated in a 24-well plate containing 50 µg (50 µℓ) of the compound of the invention for 48 hours at 37°C in the presence of 5% carbon dioxide, and the supernatant of culture was samples as IL-1 induction supernatant. The IL-1 activity in the IL-1 induction supernatant was evaluated by measuring the growth inhibitory activity of IL-1 susceptible human melanoma cell A375 Met-Mix. The cells of A375 Met-Mix (2 × 10³ cells/0.1 mℓ/well) were suspended in RPMI 1640 medium containing 10% FCS, and the IL-1 induction supernatant (0.1 mℓ/well) diluted in steps was added and incubated in a 96-well plate for 96 hours at 37°C in the presence of 5% carbon dioxide. After incubation, the viable cells were fixed with methanol, and the cells were stained with 0.2% crystal violet, and the cells were dissolved with 1% SDS, and the absorbance at 550 nm was measured. […]

The next series has as its system neutrophils. Nature of the series: O₂⁻ production stimulating activity in neutrophils. The class given is cell-based, C3H/HeN mouse. Conditions: compound 10 µg/mℓ, 37°C for 60 minutes, then cytochrome C (80 µM) and FMLP (0.1 µM); SOD-inhibitable cytochrome C reduction. How it is done:
The O₂⁻ production stimulating activity in neutrophils was evaluated in the following experimental system [see J. Exp. Med., Vol. 160, 1656 - 1671, 1984].
In the peritoneal cavity of C3H/HeN mouse (male, 8 - 9 weeks old), physiological saline containing 0.2% (w/v) of casein was administered. Three hours later, peritoneal exudate cells (90% or more of which are neutrophils) induced in the peritoneal cavity were collected. These cells (1.7 × 10⁶ cells/ml/tube) were incubated in the presence of the compound of the invention (10 µg/mℓ) at 37°C for 60 minutes, and cytochrome C (80 µM) and fomyl-methionyl-leucyl-phenylalanine (FMLP) (0.1 µM) were added. After reaction for 10 minutes at 37°C in the presence of or in the absence of superoxide dismutase (SOD), the SOD-inhibitable cytochrome C reduction quantity was calculated from the difference of absorbances at 550 nm and 541.7 nm and the molar absorption coefficient (16.5 × 10³). The O₂⁻ production stimulating activity was expressed in the following stimulation percentage. [formula] The compounds of the invention presented the activities as shown in the below table.

The subject of the next series is spleen cells. Nature of the series: Mitogen activity (³H-thymidine uptake into spleen cells). The class given is cell-based, C3H/HeN mouse. Particulars: 48 hours incubation. As to the method: The mitogen activity was evaluated in the following experiment [see Eur. J. Immunol., Vol. 14, 109 - 114, 1984].
The spleen of C3H/HeN mouse (male, 6 - 10 weeks old) was aseptically removed, rubbed and loosened in MEM, and passed through stainless steel mesh, and spleen cells were sampled. After hemolyzing the erythrocytes mixed in the spleen cells, the cells were suspended in RPMI 1640 medium containing 5% FBS and presented for the experiment.
The mitogen activity of the compound of the invention was evaluated by measuring the quantity of ³H-thymidine taken into the spleen cells treated with the compound of the invention. That is, the spleen cells adjusted to 5 × 10⁶ cells/well (100 µℓ) were seeded in a 96-well plate, and the compound of the invention (100 µℓ) at specified concentration was added to the spleen cells. After incubation for 48 hours at 37°C in the presence of 5% carbon dioxide, 1 µCi/well (50 µℓ) of ³H-thymidine was added to the incubated cells, which were incubated for further 4 hours. The cells were washed in phosphate buffer saline (PBS), and the titer of ³H-thymidine (radioactivity) taken in the cells was determined by liquid scintillation counter. […]

The test system of a further series is TNF. Nature of the series: TNF producing activity (TNF in serum measured by damage of L929 cells). Particulars: Corynebacterium parvum primed mouse, 10 µg/mouse intravenously nine days later, blood sampled 90 minutes later; reciprocal of serum dilution showing 50% cytotoxicity. The class given is in vivo, ICR mouse. How it is done:
The producing activity of TNF was evaluated in the following experiment.
The first stimulating agent, 5% suspension (0.2 mℓ physiological saline) of Corynebacterium parvum was intravenously administered to ICR mouse (female, 6 - 7 weeks old). Nine days later, as the second stimulating agent, 10 µg/mouse of the compound of the invention was intravenously administered, and 90 minutes later, 0.5 to 1 mℓ of blood was sampled from the retro-orbital plexus. After being allowed to stand at room temperature for 5 to 6 hours, the blood was centrifuged at 7200 × g for 5 minutes to separate the serum. The serum was incubated at 56°C for 30 minutes for inactivation before use in the following experiment.
The TNF activity in serum was determined by measuring the damage of L929 cells were adjusted to a concentration of 6 × 10⁴ cells/well (0.1 mℓ) on the culture medium of RPMI 1640 containing 10% of fetal bovine serum (FBS) and 2 µg/mℓ of actinomycin D, and were seeded on a 96-well plates. The serum was diluted in steps in the RPMI 1640 medium with 10% FBS, and added to the cell by 0.1 mℓ for each. After incubation for 48 hours at 37°C, the viable cells were fixed with methanol. After staining the cells with 0.2% crystal violet, the cells were dissolved in 1% sodium dodecyl sulfate (SDS), and the absorbance at 550 nm was measured. […]

The nature of series [1]: Lethal toxicity by galactosamine loading. Particulars: mouse, in vivo, ip; 10 mg D-galactosamine hydrochloride intraperitoneally, compound in the caudal vein immediately after; observed to the seventh day; read-out: LD₅₀ (Galactosamine load). Further details: species or system C57BL mouse. As to the method: The lethal toxicity by galactosamine loading was evaluated in the following experiment [see J. Biochem., Vol. 98, 395 - 406, 1985].
To C57BL mouse (female, 7 weeks old), 10 mg of D-galactosamine hydrochloride was intraperitoneally administered, and the compound of the invention was administered in the caudal vein immediately after that.

Where [2] appears, read: compound concentration 10 µg/mℓ.

This is an account of results in EP0593765A1, “6-SUBSTITUTED LIPID A ANALOG” (priority 1991, dated 1993).

Take `CCCCCCCCCCCCCCC(CCCCCCCCCCCC)C(=O)O[C@H]1[C@H](OP(=O)(O)O)[C@@H](COC(=O)C(C)(C)C)OC[C@@H]1NC(=O)C[C@H](O)CCCCCCCCCCC` (mixture of isomers) [Example 4, 1,5-Anhydro-2-deoxy-3-O-{(2RS)-2-dodecylhexadecanoyl}-2-{(3R)-3-hydroxytetradecanamido}-4-O-phosphono-6-O-pivaloyl-D-glucitol]: the IL-1 titer with interleukin-1 (IL-1) is 16 U/mℓ. In the series on neutrophils, the Stimulation percentage turned out to be 293. Also, the Simulation index is listed as 5.1 in the series with spleen cells (compound concentration 1 µg/mℓ) and 19.6 with spleen cells (setting [2]).
As for `CCCCCCCCCCCCCCC(CCCCCCCCCCCC)C(=O)O[C@H]1[C@H](OP(=O)(O)O)[C@@H](COC(=O)CCC(=O)OC)OC[C@@H]1NC(=O)C[C@H](O)CCCCCCCCCCC` (stereo partly shown) [Example 1], the IL-1 titer in the series on interleukin-1 (IL-1) came to 24 U/mℓ. This molecule displayed a Stimulation percentage in the series on neutrophils of 363. In addition, in the series on TNF, the “TNF titer in serum” value was found to be 727800 U/mℓ. Further, the LD50 at 168 h in series [1] stood at 0.0299 mg/kg. Moreover, the figures for the Simulation index with spleen cells (compound concentration 1 µg/mℓ) and in the series on spleen cells (setting [2]) were 14.8 and 26.5, respectively.
Consider `CCCCCCCCCCCCCCC(CCCCCCCCCCCC)C(=O)O[C@H]1[C@H](OP(=O)(O)O)[C@@H](CO)OC[C@@H]1NC(=O)C[C@H](O)CCCCCCCCCCC` (stereo partly shown) [Control compound, reference compound], for which, in the series on interleukin-1 (IL-1), the IL-1 titer is reported as 15 U/mℓ. Besides, the Stimulation percentage in the series on neutrophils is reported as 80. Further, the “TNF titer in serum” value with TNF was 538900 U/mℓ. The LD50 at 168 h in series [1] came to 0.0028 mg/kg. Also, the Simulation index in the series with spleen cells (compound concentration 1 µg/mℓ) was 2.7; with spleen cells (setting [2]), 18.3.
